From patent publication US20220127297A1, “Novel Antibacterial 3"-Derivatives Of 4,6-Disubstituted 2,5-Dideoxystreptamine Aminoglycoside Antibiotics” (AGILeBiotics B.V., priority 2018, published 2022) come the findings set out here.

≈ marks a conversion by molar mass, not a printed value.

One assay deals with K. pneumoniae DSM 26371. In words: MIC 50, broth micro-dilution, DSM strains. Format: cell-based, Klebsiella pneumoniae. Conditions: Klebsiella pneumoniae, DSM26371, K. pneumoniae DSM 26371; read-out: MIC 50. An excerpt:
(§1) 3.2 Against Selected Bacteria of the ESKAPE Panel and Enterococcus faecalis (DSM Strains)
(§2) Tested reference compounds. Amikacin sulfate (Cat. No. 01693, Chem-Impex), Gentamicin sulfate (Cat. No. G4918, Sigma Aldrich).
(§3) Microbial strains. Enterococcus faecalis DSM 2570, Klebsiella pneumoniae DSM 26371, Acinetobacter baumannii DSM 105126, Enterobacter cloacae 3MRGN (clinical bronchial aspirate isolate).
(§4) Culture media and equipment. BBL™ Mueller Hinton Broth 2 (Lot. BCBW1143, Cat. No. 70192, Sigma); Trypcase Soy Blood-agar plates (Cat. No. 43001, Biomérieux); Cryoinstant (contains 15% glycerol; Cat. No. 822070ZA, VWR International); GasPak™ EZ Standard Incubation Container (Cat. No. 260671, Becton Dickinson); GasPak™ EZ Campy Container System Sachets (Cat. No. 260680, Becton Dickinson); 96-well deep well plate, 1 mL (Cat. No. 0030506.200, Eppendorf); Plate lid (Cat. No. 0030131.525, Eppendorf); 96-well plate, F-bottom (Cat. No. 260860, Nunc); Incubator (Sartorius Certomat BS-1); Laminar flow (Heraeus HS12); UV/VIS meter (Perkin Elmer Lambda Bio+); Platereader (Tecan Infinite M200 Pro).
(§5) Compound preparation. Compounds were prepared in MH2 media at a concentration of 5 mM and stored at 4° C. For testing, solutions of 128 μM were prepared in MH2, for tests against E. faecalis a solution of 512 μM was prepared. Out of these working solutions, 400 μL was transferred to wells in the first column of 96-well deep well plates. Each compound was transferred in triplicate. Plates were previously filled with 200 μL of MH2 media in all wells except for the wells in the first column. After compound and antibiotic addition, the compounds were serial two-fold diluted by transferring 200 μL from the first to the second column, then from the second to the third column and so on. Finally, 200 μL was removed from the last column.
(§6) Inoculum preparation. Microorganisms used were all revived from 15% glycerol storage in Croinstant tubes at −28° C. by plating them on blood agar plates. A. baumanni, and E. cloacae were grown aerobically at 37° C., E. faecalis was grown microaerophilically at 37° C., and K. pneumoniae was grown aerobically at 37° C. Plates were stored at 4° C. for up to two weeks, after which new plates were prepared from −28° C. A single colony was inoculated in MH2 media and grown at 37° C. and 200 rpm to an optical density (measured by UV/Vis spectroscopy) of 0.6-0.8 at 600 nm. Out of these suspensions, actual inoculums were prepared by diluting them to an optical density of 0.1 in MH2 media. From these inoculums, 200 μL was transferred to each well, resulting in a final compound concentration range of 64 μM-31.3 nM for, K. pneumoniae, A. baumanni, and E. cloacae, and 256 μM-125 nM for E. faecalis. Plates inoculated with E. faecalis were placed inside a GasPak™ Container System with GasPak™ Campy Container System sachets. All plates were incubated at 200 rpm for 18 h under the microorganism culturing conditions mentioned above.
(§7) MIC determination. After 18 h of growth, 200 μL was transferred to a 96-well F-bottom plate. The optical density was determined by a plate reader at 600 nm, with 10 s shaking before reading. Triplicate measurements were averaged, and a growth curve was plotted in Excel. The first column in which the growth reached half the value of maximum growth was determined as the MIC50 value for that particular compound.
(§8) MIC50. The MIC50 of a compound was assigned at which the bacterial growth reached half the value of maximum growth.

Assay [1] has as its system Enterobacter cloacae 3MRGN (clinical bronchial aspirate isolate). In words: MIC 50, broth micro-dilution, clinical isolate. The assay is classed as cell-based. The note with it: Enterobacter cloacae, E. Cloacae clinical isolate; read-out: MIC 50.
Source text: as §1, §2, §3, §4, §5, §6, §7, §8
Background: Broth dilution looks for growth in wells or tubes with falling amounts of substance.

`N=C(NCCCO)NC1[C@@H](O)C(OC2[C@@H](F)[C@H](O[C@H]3OC(CN)[C@@H](O)CC3N)C(N)C[C@H]2NC(=O)[C@@H](O)CCN)O[C@H](CO)[C@H]1O` (some centres unmarked) [ABX5041, Tobra-AHB-F-Gua 3-hydroxy-propyl]: the figures for the MIC50 (with K. pneumoniae DSM 26371; in assay [1]) were 0.5 µM (≈ 0.335 µg/mL) and 1 µM (≈ 0.671 µg/mL), respectively.
As to `N=C(NC[C@H]1CCNC1)NC1[C@@H](O)C(OC2[C@@H](F)[C@H](O[C@H]3OC(CN)[C@@H](O)CC3N)C(N)C[C@H]2NC(=O)[C@@H](O)CCN)O[C@H](CO)[C@H]1O` (stereo partly drawn) [ABX5042, Tobra-AHB-F-Gua (S) pyrrolidine-3-ylmethyl], the MIC50 in the assay on K. pneumoniae DSM 26371 was found to be 0.5 µM (≈ 0.348 µg/mL); in assay [1], 0.25 µM (≈ 0.174 µg/mL).
The corresponding values for `N=C(NC[C@H]1CNCCO1)NC1[C@@H](O)C(OC2[C@@H](F)[C@H](O[C@H]3OC(CN)[C@@H](O)CC3N)C(N)C[C@H]2NC(=O)[C@@H](O)CCN)O[C@H](CO)[C@H]1O` (stereo partly drawn) [ABX5043, Tobra-AHB-F-Gua (R) morpholin-2-yl methyl] are 0.5 µM (≈ 0.356 µg/mL) and 0.25 µM (≈ 0.178 µg/mL).
With `N=C(N)NC1[C@@H](O)C(OC2[C@@H](F)[C@H](O[C@H]3OC(CNCCO)[C@@H](O)CC3N)C(N)C[C@H]2NC(=O)[C@@H](O)CCN)O[C@H](CO)[C@H]1O` (some centres unmarked) [ABX5045, 6N-2-hydroxy-ethyl-Tobra-AHB-F-Gua], the MIC50 in the assay with K. pneumoniae DSM 26371 worked out at 0.5 µM (≈ 0.328 µg/mL); in assay [1], 1 µM (≈ 0.657 µg/mL).
For `N=C(NCC1CCCO1)NC1[C@@H](O)C(OC2[C@@H](F)[C@H](O[C@H]3OC(CN)[C@@H](O)CC3N)C(N)C[C@H]2NC(=O)[C@@H](O)CCN)O[C@H](CO)[C@H]1O` (some centres unmarked) [ABX5046, Tobra-AHB-F-Gua tetrahydrofuran-2-yl methyl], the MIC50 is 0.5 µM (≈ 0.348 µg/mL) in the assay on K. pneumoniae DSM 26371 and 1 µM (≈ 0.697 µg/mL) in assay [1].
`C[C@@H](N)CCNC(=N)NC1[C@@H](O)C(OC2[C@@H](F)[C@H](O[C@H]3OC(CN)[C@@H](O)CC3N)C(N)C[C@H]2NC(=O)[C@@H](O)CCN)O[C@H](CO)[C@H]1O` (stereo partly drawn) [ABX5047, Tobra-AHB-F-Gua (R) 3-amino-butyl]: the MIC50 is 0.25 µM (≈ 0.171 µg/mL) with K. pneumoniae DSM 26371 and 0.25 to 0.5 µM (≈ 0.171 to 0.342 µg/mL) in assay [1].
As for `N=C(NCc1ccncc1)NC1[C@@H](O)C(OC2[C@@H](F)[C@H](O[C@H]3OC(CN)[C@@H](O)CC3N)C(N)C[C@H]2NC(=O)[C@@H](O)CCN)O[C@H](CO)[C@H]1O` (some centres unmarked) [ABX5048, Tobra-AHB-F-Gua pyridin-4-yl methyl], the MIC50 turned out to be 0.5 µM (≈ 0.352 µg/mL) with K. pneumoniae DSM 26371 and 1 µM (≈ 0.704 µg/mL) in assay [1].
The corresponding values for `N=C(NCc1cnc[nH]1)NC1[C@@H](O)C(OC2[C@@H](F)[C@H](O[C@H]3OC(CN)[C@@H](O)CC3N)C(N)C[C@H]2NC(=O)[C@@H](O)CCN)O[C@H](CO)[C@H]1O` (some centres unmarked) [ABX5050, Tobra-AHB-F-Gua imidazol-5-yl methyl] are 0.5 µM (≈ 0.346 µg/mL) and 1 to 2 µM (≈ 0.693 to 1.39 µg/mL).
On the same counts, the results for `N=C(NCC1CCOC1)NC1[C@@H](O)C(OC2[C@@H](F)[C@H](O[C@H]3OC(CN)[C@@H](O)CC3N)C(N)C[C@H]2NC(=O)[C@@H](O)CCN)O[C@H](CO)[C@H]1O` (some centres unmarked) [ABX5051, Tobra-AHB-F-Gua tetrahydrofuran-3-yl methyl] are 0.5 µM (≈ 0.348 µg/mL) and 1 µM (≈ 0.697 µg/mL).
On the same counts, the results for `NCC[C@H](O)C(=O)N[C@@H]1C[C@H](N)[C@@H](O[C@H]2O[C@H](CN)[C@@H](O)[C@H](O)[C@H]2O)[C@H](O)[C@H]1O[C@H]1O[C@H](CO)[C@@H](O)[C@H](N)[C@H]1O` [Amikacin, amikacin, reference compound] are 0.5 µM (≈ 0.293 µg/mL) and 2 µM (≈ 1.17 µg/mL).
